Patent US20240287138A1, “CYCLIC PEPTIDES FOR INHIBITING TNF RECEPTOR 1 ACTIVITY” (Merck Sharp & Dohme LLC, priority 2023, published 2024)
Numbered stars: 1 amine (or outer) side, 2 acyl side, 3 side chain; on linkers, the order of the positions; unused ones are H or OH. Bridge positions count the residues as written; N and C are the ends. Square brackets hold non-standard residues; d marks the D form. Peptide text beside a SMILES is read from it. Trp(βS-Me,7-OMe) = COc1cccc2c([C@H](C)[C@H](N)C(=O)O)c[nH]c12; Ala(1-bicyclo(1.1.1)pentyl) = N[C@@H](CC12CC(C1)C2)C(=O)O; Phe(4-CH2COOH) = N[C@@H](Cc1ccc(CC(=O)O)cc1)C(=O)O; Trp(4-Cl) = N[C@@H](Cc1c[nH]c2cccc(Cl)c12)C(=O)O; Trp(7-Cl) = N[C@@H](Cc1c[nH]c2c(Cl)cccc12)C(=O)O; Phe(4-CONH2) = NC(=O)c1ccc(C[C@H](N)C(=O)O)cc1; Phe(4-COOH) = N[C@@H](Cc1ccc(C(=O)O)cc1)C(=O)O; Trp(7-aza) = N[C@@H](Cc1c[nH]c2ncccc12)C(=O)O; Phe(4-CH2NH2) = NCc1ccc(C[C@H](N)C(=O)O)cc1; Pip(5R-OH) = O=C(O)[C@@H]1CC[C@@H](O)CN1; αMeW = C[C@](N)(Cc1c[nH]c2ccccc12)C(=O)O; X1 = O=C([C@@H]1CC[C@H](N[*:1])C1)[*:2]; 1Nal = N[C@@H](Cc1cccc2ccccc12)C(=O)O; 2Nal = N[C@@H](Cc1ccc2ccccc2c1)C(=O)O; Pip(4-aza) = O=C(O)[C@@H]1CNCCN1; hPhe = N[C@@H](CCc1ccccc1)C(=O)O; 3Pal = N[C@@H](Cc1cccnc1)C(=O)O; 4Pal = N[C@@H](Cc1ccncc1)C(=O)O; NMeE = CN[C@@H](CCC(=O)O)C(=O)O; NMeDab = CN[C@@H](CCN)C(=O)O; Dap(Me) = CNC[C@H](N)C(=O)O; NEtAla = CCN[C@@H](C)C(=O)O; αMeS = C[C@](N)(CO)C(=O)O; NMeA = CN[C@@H](C)C(=O)O; Nle = CCCC[C@H](N)C(=O)O; Dap = NC[C@H](N)C(=O)O; Sar = CNCC(=O)O

Legend:
human TNFR2 ECD protein = target: T1, human TNFR2 ECD protein (Homo sapiens, UniProt P20333); assay: SPR off-target binding (selectivity) to human TNFR2 ECD
T1 construct: HRV 3C protease cleavage site (C); 6His (C, cleaved yes); made in house; host or cells: Sf21 insect cells (baculovirus), secreted
T1 sequence (P20333 23-257): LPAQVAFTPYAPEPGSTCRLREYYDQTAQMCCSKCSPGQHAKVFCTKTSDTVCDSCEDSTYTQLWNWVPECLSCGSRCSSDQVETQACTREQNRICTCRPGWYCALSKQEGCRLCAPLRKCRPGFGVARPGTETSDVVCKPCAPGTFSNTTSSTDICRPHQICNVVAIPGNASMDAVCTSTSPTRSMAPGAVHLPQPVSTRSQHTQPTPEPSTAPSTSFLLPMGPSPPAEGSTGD
How it was run: (§1)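 Read-out: kon, koff and derived affinity from SPR response units. Human TNFR1 and TNFR2 ECD, Avi-tag biotinylated with BirA, captured on a streptavidin surface; peptides injected under laminar flow in HEPES-saline with EDTA, P20 and 2% DMSO.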

[1] = target: T2, human soluble TNFR1 (sTNFR1) (Homo sapiens, UniProt P19438); assay: Human sTNFR1-peptide displacement assay (LanthaScreen Eu TR-FRET binding assay)
T2 construct: made in house; host or cells: Sf21 (baculovirus)
T2 sequence (P19438 with tags, fused parts or gaps): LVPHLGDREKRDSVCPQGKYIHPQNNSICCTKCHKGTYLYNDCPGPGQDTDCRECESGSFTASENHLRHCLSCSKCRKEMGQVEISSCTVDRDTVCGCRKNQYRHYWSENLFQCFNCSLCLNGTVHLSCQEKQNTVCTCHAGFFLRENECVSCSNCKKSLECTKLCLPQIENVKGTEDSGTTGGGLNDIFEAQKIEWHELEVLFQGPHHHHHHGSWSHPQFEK
How it was run: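 Readout is the 665/615 nm TR-FRET ratio (Eu anti-His donor, streptavidin-Alexa647 acceptor), normalized to DMSO and saturating displacer, fit by Morrison-based five-parameter logistic for Kd^app. His-tagged sTNFR1 (1-211) prebound to 100 nM biotinylated peptide SEQ ID NO.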

[2] = target: T3, human TNFR1 extracellular domain (ECD) protein (Homo sapiens, UniProt P19438); assay: SPR binding affinity to captured human TNFR1 ECD
T3 construct: HRV 3C protease cleavage site (C); 6His (C, cleaved yes); made in house; host or cells: Sf21 insect cells (baculovirus), secreted
T3 sequence (P19438 30-211): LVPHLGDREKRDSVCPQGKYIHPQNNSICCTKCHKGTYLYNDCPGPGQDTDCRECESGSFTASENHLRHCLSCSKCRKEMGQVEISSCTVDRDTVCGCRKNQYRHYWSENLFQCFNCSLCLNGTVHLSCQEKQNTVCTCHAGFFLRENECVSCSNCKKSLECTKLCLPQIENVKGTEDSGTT
How it was run: as §1

CCCC[C@@H]1NC(=O)CSC[C@@H](C(N)=O)NC(=O)[C@](C)(Cc2c[nH]c3ccccc23)NC(=O)CN(C)C(=O)[C@H](Cc2ccc(O)cc2)NC(=O)[C@H](Cc2ccc(CC(=O)O)cc2)NC(=O)[C@](C)(CO)NC(=O)[C@H](Cc2c[nH]c3c(Cl)cccc23)NC(=O)[C@H](Cc2ccncc2)NC(=O)[C@H](CC(N)=O)NC(=O)[C@H](CCC(=O)O)N(C)C(=O)[C@H](Cc2c[nH]c3ncccc23)NC(=O)[C@H](CO)NC(=O)[C@H](Cc2ccc(CN)cc2)NC1=O [SEQ ID NO. 224] ({CH2CO}-[Nle][Phe(4-CH2NH2)]S[Trp(7-aza)][NMeE]N[4Pal][Trp(7-Cl)][αMeS][Phe(4-CH2COOH)]Y[Sar][αMeW]C-NH2; thioether N-14)
Kd (human TNFR2 ECD protein): > 1000 nM | IC50 [1]: 1.7 nM | Kd [2]: 0.4 nM

C[C@H]1C(=O)N[C@@H](CC(N)=O)C(=O)N[C@@H](Cc2ccncc2)C(=O)N[C@@H](Cc2ccc3ccccc3c2)C(=O)N[C@@](C)(CO)C(=O)N[C@@H](Cc2ccc(C(=O)O)cc2)C(=O)N[C@@H](Cc2ccc(O)cc2)C(=O)N(C)CC(=O)N[C@@H](Cc2c[nH]c3ccccc23)C(=O)N[C@H](C(N)=O)CSCC(=O)N[C@@H](CCCCN)C(=O)N[C@@H](Cc2ccncc2)C(=O)N[C@@H](CO)C(=O)N[C@@H](Cc2cccc3ccccc23)C(=O)N1C [SEQ ID NO. 227] ({CH2CO}-K[4Pal]S[1Nal][NMeA]N[4Pal][2Nal][αMeS][Phe(4-COOH)]Y[Sar]WC-NH2; thioether N-14)
Kd (human TNFR2 ECD protein): > 1000 nM | IC50 [1]: 4.02 nM | Kd [2]: 2.3 nM

CCCC[C@@H]1NC(=O)[C@@H]2CC[C@@H](C2)NC(=O)[C@H]([C@@H](C)c2c[nH]c3c(OC)cccc23)NC(=O)CN(C)C(=O)[C@H](Cc2ccc(C(N)=O)cc2)NC(=O)[C@H](Cc2ccc(C(N)=O)cc2)NC(=O)[C@](C)(CO)NC(=O)[C@H](Cc2c[nH]c3c(Cl)cccc23)NC(=O)[C@H](Cc2ccncc2)NC(=O)[C@H](CC(N)=O)NC(=O)[C@H](CCC(=O)O)N(C)C(=O)[C@H](Cc2c[nH]c3ccccc23)NC(=O)[C@@H]2CC[C@@H](O)CN2C(=O)[C@H](Cc2ccncc2)NC1=O [SEQ ID NO. 229] (cyclo([4Pal][Trp(7-Cl)][αMeS][Phe(4-CONH2)][Phe(4-CONH2)][Sar][Trp(βS-Me,7-OMe)][X1][Nle][4Pal][Pip(5R-OH)]W[NMeE]N))
Kd (human TNFR2 ECD protein): > 1000 nM | Kd [1]: 0.1 nM | Kd [2]: 0.14 nM

CCCC[C@@H]1NC(=O)CSC[C@@H](C(N)=O)NC(=O)[C@](C)(Cc2c[nH]c3ccccc23)NC(=O)CN(C)C(=O)[C@H](Cc2ccc(O)cc2)NC(=O)[C@H](Cc2ccc(C(=O)O)cc2)NC(=O)[C@](C)(CO)NC(=O)[C@H](Cc2c[nH]c3c(Cl)cccc23)NC(=O)[C@H](Cc2ccncc2)NC(=O)[C@H](CC(N)=O)NC(=O)[C@H](CCC(=O)O)N(C)C(=O)[C@H](Cc2c[nH]c3ncccc23)NC(=O)[C@H](CCN)N(C)C(=O)[C@H](Cc2ccncc2)NC1=O [SEQ ID NO. 231] ({CH2CO}-[Nle][4Pal][NMeDab][Trp(7-aza)][NMeE]N[4Pal][Trp(7-Cl)][αMeS][Phe(4-COOH)]Y[Sar][αMeW]C-NH2; thioether N-14)
Kd (human TNFR2 ECD protein): > 1000 nM | IC50 [1]: 2.63 nM | Kd [2]: 1.9 nM

CCN1C(=O)[C@H](Cc2c[nH]c3c(Cl)cccc23)NC(=O)[C@H](CO)NC(=O)[C@H](Cc2ccncc2)NC(=O)[C@H](CC23CC(C2)C3)NC(=O)CSC[C@@H](C(N)=O)NC(=O)[C@H](Cc2c[nH]c3ncccc23)NC(=O)CN(C)C(=O)[C@H](Cc2ccc(O)cc2)NC(=O)[C@H](Cc2ccc(C(=O)O)cc2)NC(=O)[C@](C)(CO)NC(=O)[C@H](Cc2c[nH]c3ncccc23)NC(=O)[C@H](Cc2ccc(C(=O)O)cc2)NC(=O)[C@H](CC(N)=O)NC(=O)[C@@H]1C [SEQ ID NO. 232] ({CH2CO}-[Ala(1-bicyclo(1.1.1)pentyl)][4Pal]S[Trp(7-Cl)][NEtAla]N[Phe(4-COOH)][Trp(7-aza)][αMeS][Phe(4-COOH)]Y[Sar][Trp(7-aza)]C-NH2; thioether N-14)
Kd (human TNFR2 ECD protein): > 1000 nM | IC50 [1]: 3.19 nM | Kd [1]: 2.15 nM | Kd [2]: 0.7 nM

CN1CC(=O)N[C@@H](Cc2c[nH]c3ccccc23)C(=O)N[C@H](C(N)=O)CSCC(=O)N[C@@H](CCc2ccccc2)C(=O)N[C@@H](Cc2ccncc2)C(=O)N[C@@H](CN)C(=O)N[C@@H](Cc2c[nH]c3ccccc23)C(=O)N2CCC[C@@H]2C(=O)N[C@@H](CC(N)=O)C(=O)N[C@@H](Cc2ccncc2)C(=O)N[C@@H](Cc2ccc3ccccc3c2)C(=O)N[C@@](C)(CO)C(=O)N[C@@H](Cc2ccc(C(=O)O)cc2)C(=O)N[C@@H](Cc2cccnc2)C1=O [SEQ ID NO. 233] ({CH2CO}-[hPhe][4Pal][Dap]W[dP]N[4Pal][2Nal][αMeS][Phe(4-COOH)][3Pal][Sar]WC-NH2; thioether N-14)
Kd (human TNFR2 ECD protein): > 1000 nM | IC50 [1]: 2.65 nM | Kd [2]: 0.78 nM

CCCC[C@@H]1NC(=O)CSC[C@@H](C(N)=O)NC(=O)[C@](C)(Cc2c[nH]c3ccccc23)NC(=O)CN(C)C(=O)[C@H](Cc2ccc(O)cc2)NC(=O)[C@H](Cc2ccc(C(=O)O)cc2)NC(=O)[C@](C)(CO)NC(=O)[C@H](Cc2c[nH]c3c(Cl)cccc23)NC(=O)[C@H](Cc2ccncc2)NC(=O)[C@H](CC(N)=O)NC(=O)[C@H](CCC(=O)O)N(C)C(=O)[C@H](Cc2c[nH]c3ncccc23)NC(=O)[C@H](CNC)NC(=O)[C@H](Cc2ccncc2)NC1=O [SEQ ID NO. 235] ({CH2CO}-[Nle][4Pal][Dap(Me)][Trp(7-aza)][NMeE]N[4Pal][Trp(7-Cl)][αMeS][Phe(4-COOH)]Y[Sar][αMeW]C-NH2; thioether N-14)
Kd (human TNFR2 ECD protein): > 1000 nM | IC50 [1]: 1.92 nM | Kd [2]: 1.2 nM

CN1CC(=O)N[C@@H](Cc2c[nH]c3cccc(Cl)c23)C(=O)N[C@H](C(N)=O)CSCC(=O)N[C@@H](CCC(N)=O)C(=O)N[C@@H](Cc2ccncc2)C(=O)N[C@@H](CO)C(=O)N[C@@H](Cc2c[nH]c3ncccc23)C(=O)N(C)[C@@H](CCC(=O)O)C(=O)N[C@@H](CC(N)=O)C(=O)N[C@@H](Cc2ccncc2)C(=O)N[C@@H](Cc2c[nH]c3c(Cl)cccc23)C(=O)N[C@@](C)(CO)C(=O)N[C@@H](Cc2ccc(C(=O)O)cc2)C(=O)N[C@@H](Cc2ccc(O)cc2)C1=O [SEQ ID NO. 239] ({CH2CO}-Q[4Pal]S[Trp(7-aza)][NMeE]N[4Pal][Trp(7-Cl)][αMeS][Phe(4-COOH)]Y[Sar][Trp(4-Cl)]C-NH2; thioether N-14)
Kd (human TNFR2 ECD protein): > 1000 nM | IC50 [1]: 0.52 nM | Kd [1]: 0.61 nM | Kd [2]: 0.3 nM

CCCC[C@@H]1NC(=O)[C@@H]2CC[C@@H](C2)NC(=O)[C@H]([C@@H](C)c2c[nH]c3c(OC)cccc23)NC(=O)CN(C)C(=O)[C@H](Cc2ccc(OC)cc2)NC(=O)[C@H](Cc2ccc(C(=O)O)cc2)NC(=O)[C@](C)(CO)NC(=O)[C@H](Cc2c[nH]c3c(Cl)cccc23)NC(=O)[C@H](Cc2ccc(C(N)=O)cc2)NC(=O)[C@H](CCC(N)=O)NC(=O)[C@H](CCC(=O)O)N(C)C(=O)[C@H](Cc2c[nH]c3ccccc23)NC(=O)[C@@H]2CNCCN2C(=O)[C@H](Cc2ccncc2)NC1=O [SEQ ID NO. 240] (cyclo([4Pal][Pip(4-aza)]W[NMeE]Q[Phe(4-CONH2)][Trp(7-Cl)][αMeS][Phe(4-COOH)]Y(Me)[Sar][Trp(βS-Me,7-OMe)][X1][Nle]))
Kd (human TNFR2 ECD protein): > 1000 nM | Kd [1]: 0.23 nM | Kd [2]: 0.09 nM
